According to US4980287A, “4H-3,1-benzoxazin-4-one compounds and pharmaceutical compositions thereof for the inhibition of serine proteases” (Teijin Limited, priority 1987, dated 1990):

Experiments:
[1] = molecular target: T1, human purulent sputum elastase (Homo sapiens, UniProt P08246); assay: Human purulent sputum elastase-inhibitory activity (hydrolysis of methoxysuccinyl-peptidyl-p-nitroanilide, absorbance at 410 nm); assay type: biochemical; details: for IC50: Table 10, procedure of Example 19 (A)
T1 construct: purchased Elastin Products Co; host or cells: human purulent sputum
T1 sequence (P08246 30-247 limits assumed): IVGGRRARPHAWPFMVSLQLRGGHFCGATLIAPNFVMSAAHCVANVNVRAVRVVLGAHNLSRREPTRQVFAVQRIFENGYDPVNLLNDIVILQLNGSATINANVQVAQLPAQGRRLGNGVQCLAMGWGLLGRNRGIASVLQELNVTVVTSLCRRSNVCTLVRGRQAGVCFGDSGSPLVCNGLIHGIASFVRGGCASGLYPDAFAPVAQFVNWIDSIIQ
Excerpt: Human purulent sputum elastase is believed to be the same enzyme as human leukocyte elastase, as described by Tomashi et al. (J. BIOL. CHEM., vol. 252, pages 1917 to 1924 (1977)), and can be easily obtained commercially.
The extent of the hydrolysis of AAPVpNA by human purulent sputum elastase can be easily determined by measuring the amount of p-nitroaniline released from AAPVpNA, by a spectrophotometer. Then, by comparing the extent of hydrolysis of AAPVpNA by the human purulent sputum elastase in the absence of a compound to be tested with that in the presence of the compound to be tested in various concentrations, a concentration (IC50) of the compound to be tested necessary to inhibit 50% of the elastase reaction can be determined.
(§1) Inhibitory activities of 7-(N-carbobenzoxy-L-phenylalanyl)amino-2-isopropylamino-5-methyl-4H-3,1- benzoxazin-4-one for human purulent sputum elastase, for α-chymotrypsin, for cathepsin G, for trypsin, for thrombin and for plasmin were determined by the following methods and the results are shown in Table 9.
The testing buffer (pH7.5) consisted of 0.1M N-2-hyiroxyethylpiperazine-N'-2-ethanesulfonic acid, 1M sodium chloride and 0.1% w/v polyethylene glycol 6000.
Human purulent sputum elastase was obtained from Elastin Products Co., and adjusted to 1.5×10^-8 M in the testing buffer.
Methoxysuccinyl-[…]-p-nitroanilide was obtained from Bachem Co., and made to 10 mM in dimethyl sulfoxide.
Procedure To 2.4ml of testing buffer in a cell set at 37° in a spectrophotometer (Hitachi U-3200) with a temperature controlled cell holder were added 25 μl of substrate solution and 25 μl of acetonitrile with or without inhibitory compounds, and the resultant mixture was stirred. Reactions were initiated by addition of 50 μl of the enzyme solution and hydrolysis of the substrate was monitored by measuring a change of light absorbance at 410 nm. The concentration (IC50) at which 50% of the activity of human purulent sputum elastase was inhibited was determined for each inhibitory compound from a steady state velocity of the substrate hydrolysis.
(§2) In each of Examples 20 to 37 and Comparative Examples 1 to 4, the same experimental procedures as those described in Example 19, items (A) and (B) were used for determination of enzyme inhibitory activity, except that the compound indicated in Table 10 was tested as an inhibitory compound.

[2] = molecular target: T2, bovine pancreas α-chymotrypsin (Bos taurus, UniProt P00766); assay: α-chymotrypsin-inhibitory activity (hydrolysis of succinyl-Ala-Ala-Pro-Phe-p-nitroanilide); assay type: biochemical; details: for IC50 / Selectivity: Table 10; for IC50: procedure of Example 19 (B); for Selectivity: ratio of IC50 for bovine α-chymotrypsin to IC50 for human purulent sputum elastase
T2 construct: bovine pancreas α-chymotrypsin; purchased Sigma Co; host or cells: bovine pancreas
Method: An in vitro test similar to that mentioned above can be applied to chymotrypsin.
As a chymotrypsin, α-chymotrypsin of bovine pancreas, which is readily available commercially, is used. […] The extent of the hydrolysis of AAPFpNA is measured in the absence of a compound to be tested or in the presence of the compound in various concentrations thereof, and thus a concentration (IC50) of the compound necessary to inhibit 50% of the enzyme reaction can be determined.
as §1
The same procedures as those described in the above item (A) for the human purulent sputum elastase were carried out, with the following exception.
The enzyme-testing tuffer solution contained 2×10^-8 M bovine pancreas α-chymotrypsin (available from Sigma Co.). The synthetic substrate was succinyl-L-alanyl-L-alanyl-L-prolyl-L-henylalanyl-p-nitroanilide (available from Bachem Co.).
An IC50 for the α-chymotrypsin was determined in the same manner as mentioned above. (C) Determination of human cathepsin G-inhibitory activity
as §2
In Table 10, the item "Selectivity" refers to a ratio of an IC50 value for bovine α-chymotrypsin to an IC50 value for human purulent sputum elastase. The larger the value of the ratio, the higher the selectivity of the inhibitory activity for elastase.

[3] = Stability in human serum (37° C., HPLC peak area); assay type: in vitro ADME
Method: A solution of […] of 7-(N-carbobenzoxy-L-phenylalanyl)amino-2-isopropylamino-5-methyl-4H-3,1-benzoxazin-4-one in 50 μl acetonitrile was mixed with 0.45 ml of human serum, and the resultant mixture was allowed to stand at a temperature of 37° C. The mixture was subjected to treatment with a Sep-pac C18 cartridge (trademark, made by Waters Cc.) for removal of protein, and a portion of the resultant acetonitrile-eluted fraction was subjected to a high speed liquid chromatographic analysis.

[4] = molecular target: T3, human thrombin (Homo sapiens, UniProt P00734); assay: Thrombin-inhibitory activity; assay type: biochemical; details: Table 9
T3 construct: human thrombin; purchased Daiichi Kagaku Yakuhin K.K
Method: as §1
The same procedures as those described in item (A) were carried out except that the enzyme-testing buffer solution contained 0.04 μkat/ml human thrombin (available from Daiichi Kagaku Yakuhin K.K.) and the substrate consisted of D-phenylalanyl-pipecolyl-arginyl-p-nitroanilide (available from Daiichi Kagaku Yakuhin K.K.).
An IC for the human thrombin was determined in the same manner as mentioned above.

[5] = molecular target: T4, human plasmin (Homo sapiens, UniProt P00747); assay: Plasmin-inhibitory activity; assay type: biochemical; details: Table 9
T4 construct: human plasmin; purchased Daiichi Kagaku Yakuhin K.K
Method: as §1
The same procedures as those described in item (A) were carried out except that the enzyme testing buffer solution contained 0.6 CasU/ml human plasmin (available from Daiichi Kagaku Yakuhin K.K.) and the substrate consisted of D-valyl-L-leucyl-L-lysyl-p-nitro-anilide (available from Daiichi Kagaku Yakuhin K.K.).
An IC50 for the human plasmin was determined in the same manner as mentioned above.

[6] = ratio of IC50 for the protease to IC50 for human purulent sputum elastase
[7] = Table 9, ratio of IC50 for the protease to IC50 for human purulent sputum elastase

T4 sequence (P00747 581-810 limits assumed): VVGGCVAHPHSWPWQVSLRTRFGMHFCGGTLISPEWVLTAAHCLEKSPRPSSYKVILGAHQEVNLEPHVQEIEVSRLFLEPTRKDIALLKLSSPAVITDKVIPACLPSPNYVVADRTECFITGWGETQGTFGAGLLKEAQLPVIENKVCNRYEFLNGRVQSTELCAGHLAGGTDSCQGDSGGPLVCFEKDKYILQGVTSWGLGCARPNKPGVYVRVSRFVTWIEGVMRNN
T4 sequence (P00747 97-580 partner limits assumed): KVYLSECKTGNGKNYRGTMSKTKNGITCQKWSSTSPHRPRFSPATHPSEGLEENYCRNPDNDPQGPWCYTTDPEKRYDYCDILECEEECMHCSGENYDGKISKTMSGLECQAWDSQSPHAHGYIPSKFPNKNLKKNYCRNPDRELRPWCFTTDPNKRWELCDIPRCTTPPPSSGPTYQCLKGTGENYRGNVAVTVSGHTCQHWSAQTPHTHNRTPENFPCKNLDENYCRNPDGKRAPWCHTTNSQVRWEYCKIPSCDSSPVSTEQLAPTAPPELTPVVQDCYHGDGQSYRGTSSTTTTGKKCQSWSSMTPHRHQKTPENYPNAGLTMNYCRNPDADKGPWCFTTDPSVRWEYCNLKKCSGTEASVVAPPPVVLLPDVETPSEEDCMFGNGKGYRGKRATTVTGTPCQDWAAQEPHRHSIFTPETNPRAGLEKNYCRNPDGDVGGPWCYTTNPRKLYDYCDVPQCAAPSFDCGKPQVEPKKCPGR

| SMILES | IC50 [1] [nM] | IC50 [2] [nM] | Selectivity [2] | also measured |
| --- | --- | --- | --- | --- |
| CC(C)Oc1nc2cc(NC(=O)[C@H](Cc3ccccc3)NC(=O)OCc3ccccc3)ccc2c(=O)o1 [Example 24] | 11 | 340 | 31 | – |
| CC(C)Oc1nc2cc(NC(=O)[C@@H](Cc3ccccc3)NC(=O)OCc3ccccc3)ccc2c(=O)o1 [Example 27] | 41 | 490 | 12 | – |
| CC(C)Oc1nc2cc(NC(=O)[C@@H]3CCCN3C(=O)OCc3ccccc3)ccc2c(=O)o1 [Example 21, 7-(N-carbobenzoxy-L-prolyl)amino-2-isopropoxy-4H-3,1-benzoxazin-4-one] | 44 | 170 | 3.9 | – |
| O=C(Nc1ccc2c(=O)oc(C(F)(F)F)nc2c1)[C@@H]1CCCN1C(=O)OCc1ccccc1 [Example 20, 7-(N-carbobenzoxy-L-prolyl)amino-2-trifluoromethyl-4H-3,1-benzoxazin-4-one] | 2200 | 17000 | 7.7 | – |
| CC(C)Oc1nc2ccccc2c(=O)o1 [compound 2, reference compound] | 49 | 22 | 0.44 | – |
| CC(=O)Nc1ccc2c(=O)oc(OC(C)C)nc2c1 [compound 3, reference compound] | 58 | 32 | 0.55 | – |
| CC(C)Oc1nc2cc(NC(=O)[C@H](CCCCNC(=O)OCc3ccccc3)NC(=O)OCc3ccccc3)ccc2c(=O)o1 [Example 25] | 14 | 580 | 41 | – |
| CC(C)Oc1nc2cc(NC(=O)[C@@H](NC(=O)[C@H](Cc3ccccc3)NC(=O)OCc3ccccc3)C(C)C)ccc2c(=O)o1 [Example 33] | 21 | 180 | 5.6 | – |
| Cc1cccc2nc(OC(C)C)oc(=O)c12 [compound 4, reference compound] | 41 | 120 | 2.9 | – |
| CC(C)Oc1nc2cc(NC(=O)[C@H](CCC(=O)OCc3ccccc3)NC(=O)OCc3ccccc3)ccc2c(=O)o1 [Example 26] | 26 | > 500 | > 20 | – |
| Cc1cc(NC(=O)[C@H](Cc2ccccc2)NC(=O)OCc2ccccc2)cc2nc(NC(C)C)oc(=O)c12 [Example 36, 7-(N-carbobenzoxy-L-phenylalanyl)amino-5-methyl-2-isopropylamino-4H-3,1-benzoxazin-4-one] | 1.3 | 25 | 19 | half-life [3]: 2.5 h; IC50 ([4]; 0.04 μkat/ml enzyme): > 100000 nM; Selectivity, human thrombin [4, 6]: > 100,000; Selectivity, human purulent sputum elastase [1, 7]: 1; IC50 ([5]; 0.6 CasU/ml enzyme): 75000 nM; Selectivity, human plasmin [5, 6]: 58,000; Selectivity, bovine pancreas α-chymotrypsin [2, 7]: 19 |
| CC(C)Oc1nc2cc(NC(=O)[C@@H](NC(=O)OCc3ccccc3)C(C)C)ccc2c(=O)o1 [Example 23] | 24 | 160 | 6.6 | – |
| CC(=O)N1CCC[C@H]1C(=O)Nc1ccc2c(=O)oc(OC(C)C)nc2c1 [Example 30] | 130 | 490 | 3.8 | – |
| Cc1cc(NC(=O)[C@H](Cc2ccccc2)NC(=O)OCc2ccccc2)cc2nc(OC(C)C)oc(=O)c12 [Example 34, 7-(N-carbobenzoxy-L-phenylalanyl)amino-2-isopropoxy-5-methyl-4H-3,1-benzoxazin-4-one] | 0.55 | 10 | 18 | – |
| CC(C)Oc1nc2cc(NC(=O)[C@H](Cc3ccccc3)NC(=O)OC(C)(C)C)ccc2c(=O)o1 [Example 29] | 46 | 94 | 2.0 | – |
| CC(C)Oc1nc2cc(NC(=O)[C@@H](NC(=O)[C@@H]3CCCN3C(=O)OCc3ccccc3)C(C)C)ccc2c(=O)o1 [Example 32] | 20 | 120 | 5.8 | – |
| Cc1nc2cc(NC(=O)[C@H](Cc3ccccc3)NC(=O)OCc3ccccc3)ccc2c(=O)o1 [Example 37, 7-(N-carbobenzoxy-L-phenylalanyl)amino-2-methyl-4H-3,1-benzoxazin4-one] | 5100 | 160000 | 31 | – |
| CC(C)Oc1nc2cc(NC(=O)[C@@H]3CCCN3C(=O)OC(C)(C)C)ccc2c(=O)o1 [Example 28] | 35 | 130 | 3.7 | – |
| O=c1oc(C(F)(F)F)nc2ccccc12 [compound 1, reference compound] | 6200 | 680 | 0.10 | – |
| CC(C)Oc1nc2cc(NC(=O)[C@@H]3CCCN3C(=O)[C@H](C)NC(=O)OCc3ccccc3)ccc2c(=O)o1 [Example 31] | 32 | 180 | 5.6 | – |
| CC(C)Oc1nc2cc(NC(=O)[C@H](C)NC(=O)OCc3ccccc3)ccc2c(=O)o1 [Example 22] | 77 | 370 | 4.8 | – |
